Source: ChEMBL document CHEMBL4507276 (2021)

Legend:
Conditions in all cases: Compound concentration 1000.0 nM
[1] = biological target: Serine/threonine-protein kinase 32C (Homo sapiens) (UniProt Q86UX6)
[2] = biological target: Cyclin-dependent kinase 4 (Homo sapiens) (UniProt P11802)
[3] = test system: Epidermal growth factor receptor (Homo sapiens), P00533 [L858R]
[4] = biological target: Tyrosine-protein kinase Blk (Homo sapiens) (UniProt P51451)
[5] = biological target: Serine/threonine-protein kinase LATS1 (Homo sapiens) (UniProt O95835)
Sequence of Serine/threonine-protein kinase LATS1 (Homo sapiens) (O95835 whole entry): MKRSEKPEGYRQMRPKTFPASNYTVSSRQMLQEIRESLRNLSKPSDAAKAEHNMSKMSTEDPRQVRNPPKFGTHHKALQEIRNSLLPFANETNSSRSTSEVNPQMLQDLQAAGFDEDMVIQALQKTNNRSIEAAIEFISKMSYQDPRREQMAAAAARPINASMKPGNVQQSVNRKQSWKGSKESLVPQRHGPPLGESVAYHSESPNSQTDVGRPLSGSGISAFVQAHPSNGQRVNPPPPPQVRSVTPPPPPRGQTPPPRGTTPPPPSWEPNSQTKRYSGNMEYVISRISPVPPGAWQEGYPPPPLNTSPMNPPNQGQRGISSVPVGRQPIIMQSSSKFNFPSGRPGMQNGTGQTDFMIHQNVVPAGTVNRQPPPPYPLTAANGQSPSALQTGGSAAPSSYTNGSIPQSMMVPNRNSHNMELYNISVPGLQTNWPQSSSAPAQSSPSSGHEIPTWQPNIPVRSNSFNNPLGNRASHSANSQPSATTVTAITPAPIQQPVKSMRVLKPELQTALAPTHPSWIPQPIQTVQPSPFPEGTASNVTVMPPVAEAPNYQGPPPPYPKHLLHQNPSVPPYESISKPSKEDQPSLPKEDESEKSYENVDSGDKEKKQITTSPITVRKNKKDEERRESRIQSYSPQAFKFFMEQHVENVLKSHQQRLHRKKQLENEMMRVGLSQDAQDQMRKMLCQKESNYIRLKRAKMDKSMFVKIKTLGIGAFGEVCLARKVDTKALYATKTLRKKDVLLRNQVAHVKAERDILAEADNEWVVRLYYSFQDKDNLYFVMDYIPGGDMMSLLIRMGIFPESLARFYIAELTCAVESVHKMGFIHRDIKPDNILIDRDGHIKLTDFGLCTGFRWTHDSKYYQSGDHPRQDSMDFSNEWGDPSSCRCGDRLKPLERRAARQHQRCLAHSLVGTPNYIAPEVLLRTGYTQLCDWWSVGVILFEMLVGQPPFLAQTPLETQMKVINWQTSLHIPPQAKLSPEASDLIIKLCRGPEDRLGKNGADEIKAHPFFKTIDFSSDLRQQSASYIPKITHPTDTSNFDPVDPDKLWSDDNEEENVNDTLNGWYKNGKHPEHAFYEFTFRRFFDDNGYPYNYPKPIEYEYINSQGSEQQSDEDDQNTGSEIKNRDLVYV

[6] = biological target: Ephrin type-A receptor 6 (Homo sapiens) (UniProt Q9UF33)
Sequence of Ephrin type-A receptor 6 (Homo sapiens) (Q9UF33 whole entry): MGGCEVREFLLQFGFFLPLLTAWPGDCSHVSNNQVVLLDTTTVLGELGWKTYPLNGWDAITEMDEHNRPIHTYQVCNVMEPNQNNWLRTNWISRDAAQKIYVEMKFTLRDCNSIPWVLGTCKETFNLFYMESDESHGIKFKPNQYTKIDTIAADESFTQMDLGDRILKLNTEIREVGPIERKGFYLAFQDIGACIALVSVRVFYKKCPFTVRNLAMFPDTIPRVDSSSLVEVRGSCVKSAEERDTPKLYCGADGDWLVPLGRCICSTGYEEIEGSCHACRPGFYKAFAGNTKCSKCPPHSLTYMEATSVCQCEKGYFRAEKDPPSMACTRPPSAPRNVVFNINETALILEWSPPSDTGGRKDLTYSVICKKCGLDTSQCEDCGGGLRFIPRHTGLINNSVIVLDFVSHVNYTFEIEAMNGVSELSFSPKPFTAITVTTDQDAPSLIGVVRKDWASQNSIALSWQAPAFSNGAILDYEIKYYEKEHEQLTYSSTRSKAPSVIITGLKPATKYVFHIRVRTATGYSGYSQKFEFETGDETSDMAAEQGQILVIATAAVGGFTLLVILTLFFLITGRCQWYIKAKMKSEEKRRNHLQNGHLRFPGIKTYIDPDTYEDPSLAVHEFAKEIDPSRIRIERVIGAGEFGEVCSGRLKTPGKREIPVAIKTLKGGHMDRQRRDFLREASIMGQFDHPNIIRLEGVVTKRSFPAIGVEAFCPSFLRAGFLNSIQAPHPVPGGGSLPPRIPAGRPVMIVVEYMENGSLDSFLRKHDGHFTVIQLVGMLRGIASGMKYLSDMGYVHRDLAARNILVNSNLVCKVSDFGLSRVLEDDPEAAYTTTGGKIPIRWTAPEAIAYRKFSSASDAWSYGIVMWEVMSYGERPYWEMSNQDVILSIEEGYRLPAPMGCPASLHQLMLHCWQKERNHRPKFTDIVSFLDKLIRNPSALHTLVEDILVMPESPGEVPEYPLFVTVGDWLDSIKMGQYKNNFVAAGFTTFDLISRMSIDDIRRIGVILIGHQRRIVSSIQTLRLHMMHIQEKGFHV

[7] = biological target: T1, Inhibitor of nuclear factor kappa-B kinase subunit alpha (Homo sapiens) (UniProt O15111)
T1 sequence (whole entry): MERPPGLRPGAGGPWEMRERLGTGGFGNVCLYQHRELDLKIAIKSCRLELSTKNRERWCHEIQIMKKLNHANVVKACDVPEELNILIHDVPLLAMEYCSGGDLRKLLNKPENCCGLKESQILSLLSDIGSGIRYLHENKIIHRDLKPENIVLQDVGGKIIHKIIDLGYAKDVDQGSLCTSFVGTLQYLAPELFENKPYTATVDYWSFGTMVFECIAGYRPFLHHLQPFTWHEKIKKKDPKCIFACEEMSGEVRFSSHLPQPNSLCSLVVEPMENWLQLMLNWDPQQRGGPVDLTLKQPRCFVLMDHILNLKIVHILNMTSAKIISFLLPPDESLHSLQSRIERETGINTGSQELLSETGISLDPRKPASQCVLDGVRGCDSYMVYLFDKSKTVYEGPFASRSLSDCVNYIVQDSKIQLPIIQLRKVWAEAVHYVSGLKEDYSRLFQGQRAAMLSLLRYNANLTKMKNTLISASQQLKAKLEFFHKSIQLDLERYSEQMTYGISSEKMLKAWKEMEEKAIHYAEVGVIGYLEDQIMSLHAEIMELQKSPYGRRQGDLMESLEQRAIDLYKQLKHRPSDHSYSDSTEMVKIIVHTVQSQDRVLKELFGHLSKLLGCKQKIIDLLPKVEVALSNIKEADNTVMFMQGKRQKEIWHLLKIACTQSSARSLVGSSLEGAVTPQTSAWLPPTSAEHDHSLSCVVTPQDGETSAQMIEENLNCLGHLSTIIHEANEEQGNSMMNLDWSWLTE

[8] = biological target: T2, Dual specificity mitogen-activated protein kinase kinase 6 (Homo sapiens) (UniProt P52564)
T2 sequence (whole entry): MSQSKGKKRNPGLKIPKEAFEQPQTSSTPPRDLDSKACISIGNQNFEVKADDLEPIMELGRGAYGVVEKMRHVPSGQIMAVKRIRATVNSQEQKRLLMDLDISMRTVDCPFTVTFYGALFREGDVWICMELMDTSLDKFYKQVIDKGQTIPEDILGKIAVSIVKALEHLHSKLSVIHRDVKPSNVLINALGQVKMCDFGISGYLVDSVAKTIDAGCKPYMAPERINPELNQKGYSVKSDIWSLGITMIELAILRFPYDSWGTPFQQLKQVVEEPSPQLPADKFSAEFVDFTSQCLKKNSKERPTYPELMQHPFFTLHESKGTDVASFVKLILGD

[9] = test system: Receptor-type tyrosine-protein kinase FLT3 (Homo sapiens), P36888 [UNDEFINED MUTATION]
Sequence of Receptor-type tyrosine-protein kinase FLT3 (Homo sapiens), P36888 [UNDEFINED MUTATION] (P36888 whole entry, looked up, change not shown): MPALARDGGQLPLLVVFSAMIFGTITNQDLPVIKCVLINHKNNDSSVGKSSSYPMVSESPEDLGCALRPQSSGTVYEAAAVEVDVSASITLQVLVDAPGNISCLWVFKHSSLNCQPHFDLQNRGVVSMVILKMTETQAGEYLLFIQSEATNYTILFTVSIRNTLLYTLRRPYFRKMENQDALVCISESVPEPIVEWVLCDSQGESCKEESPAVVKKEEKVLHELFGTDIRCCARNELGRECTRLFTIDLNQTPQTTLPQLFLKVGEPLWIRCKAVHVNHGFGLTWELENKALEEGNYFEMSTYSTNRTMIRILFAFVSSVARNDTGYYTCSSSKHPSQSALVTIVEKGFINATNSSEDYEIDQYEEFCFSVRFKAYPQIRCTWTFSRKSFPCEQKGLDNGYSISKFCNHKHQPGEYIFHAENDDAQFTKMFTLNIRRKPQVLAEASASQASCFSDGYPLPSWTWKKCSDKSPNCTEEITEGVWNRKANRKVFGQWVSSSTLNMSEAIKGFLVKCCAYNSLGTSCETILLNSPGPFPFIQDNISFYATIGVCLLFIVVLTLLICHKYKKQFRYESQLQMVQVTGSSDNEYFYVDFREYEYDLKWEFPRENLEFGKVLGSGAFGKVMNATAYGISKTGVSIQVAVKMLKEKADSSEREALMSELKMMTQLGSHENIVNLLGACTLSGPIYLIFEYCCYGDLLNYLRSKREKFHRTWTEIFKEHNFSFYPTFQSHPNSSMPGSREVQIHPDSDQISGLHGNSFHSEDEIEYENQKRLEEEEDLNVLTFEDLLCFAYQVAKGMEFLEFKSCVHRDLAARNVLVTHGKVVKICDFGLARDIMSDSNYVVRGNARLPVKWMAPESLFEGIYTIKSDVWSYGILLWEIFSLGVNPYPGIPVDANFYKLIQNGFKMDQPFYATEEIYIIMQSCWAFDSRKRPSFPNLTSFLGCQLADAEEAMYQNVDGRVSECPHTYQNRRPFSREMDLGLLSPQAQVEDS

[10] = biological target: Vascular endothelial growth factor receptor 1 (Homo sapiens) (UniProt P17948)
[11] = test system: Tyrosine-protein kinase ABL1 (Homo sapiens), P00519 [T315I]
[12] = biological target: Ankyrin repeat and protein kinase domain-containing protein 1 (Homo sapiens) (UniProt Q8NFD2)
Sequence of Ankyrin repeat and protein kinase domain-containing protein 1 (Homo sapiens) (Q8NFD2 whole entry, the tested form may be a part): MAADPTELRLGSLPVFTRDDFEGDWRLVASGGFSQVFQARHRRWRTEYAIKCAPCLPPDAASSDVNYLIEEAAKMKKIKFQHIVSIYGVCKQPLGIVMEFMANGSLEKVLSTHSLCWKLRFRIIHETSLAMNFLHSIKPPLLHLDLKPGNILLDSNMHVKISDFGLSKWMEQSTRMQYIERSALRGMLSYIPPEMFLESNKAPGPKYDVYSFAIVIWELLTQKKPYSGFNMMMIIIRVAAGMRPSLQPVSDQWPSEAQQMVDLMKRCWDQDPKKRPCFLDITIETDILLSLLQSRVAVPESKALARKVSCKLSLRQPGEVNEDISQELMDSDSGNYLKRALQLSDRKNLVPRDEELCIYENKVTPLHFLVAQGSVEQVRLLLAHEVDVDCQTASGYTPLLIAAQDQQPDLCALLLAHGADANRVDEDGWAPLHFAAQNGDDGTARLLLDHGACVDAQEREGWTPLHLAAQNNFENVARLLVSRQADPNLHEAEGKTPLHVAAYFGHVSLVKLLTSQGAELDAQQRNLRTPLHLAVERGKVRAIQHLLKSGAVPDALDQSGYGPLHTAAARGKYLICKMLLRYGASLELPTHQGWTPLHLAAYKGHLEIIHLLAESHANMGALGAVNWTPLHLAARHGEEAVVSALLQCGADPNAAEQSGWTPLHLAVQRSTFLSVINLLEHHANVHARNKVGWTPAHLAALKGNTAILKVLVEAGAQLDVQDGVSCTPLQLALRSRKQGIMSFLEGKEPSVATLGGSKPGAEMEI

[13] = biological target: T3, Discoidin domain-containing receptor 2 (Homo sapiens) (UniProt Q16832)
T3 sequence (whole entry): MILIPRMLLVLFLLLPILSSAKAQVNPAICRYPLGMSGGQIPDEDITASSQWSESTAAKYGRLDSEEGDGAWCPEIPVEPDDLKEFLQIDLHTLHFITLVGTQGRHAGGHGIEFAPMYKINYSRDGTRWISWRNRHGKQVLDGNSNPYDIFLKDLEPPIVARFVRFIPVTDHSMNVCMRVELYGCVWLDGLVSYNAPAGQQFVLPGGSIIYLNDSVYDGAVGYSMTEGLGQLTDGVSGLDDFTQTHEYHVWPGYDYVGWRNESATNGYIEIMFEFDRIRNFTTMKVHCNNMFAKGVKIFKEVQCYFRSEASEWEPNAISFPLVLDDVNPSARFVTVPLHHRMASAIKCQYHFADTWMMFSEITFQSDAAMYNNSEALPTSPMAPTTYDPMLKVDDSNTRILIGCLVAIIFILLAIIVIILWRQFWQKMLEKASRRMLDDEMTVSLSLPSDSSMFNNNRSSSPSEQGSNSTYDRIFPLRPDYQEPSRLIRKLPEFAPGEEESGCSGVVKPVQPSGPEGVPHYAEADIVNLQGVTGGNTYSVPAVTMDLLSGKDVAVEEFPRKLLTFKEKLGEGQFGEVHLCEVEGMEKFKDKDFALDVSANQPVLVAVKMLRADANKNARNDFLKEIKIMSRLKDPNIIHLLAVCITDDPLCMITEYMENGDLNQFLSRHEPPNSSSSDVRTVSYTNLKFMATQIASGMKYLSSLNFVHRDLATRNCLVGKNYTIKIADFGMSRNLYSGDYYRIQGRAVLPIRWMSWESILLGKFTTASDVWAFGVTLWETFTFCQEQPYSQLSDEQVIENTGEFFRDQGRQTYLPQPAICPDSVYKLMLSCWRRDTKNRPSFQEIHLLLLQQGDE

Sequence of Cyclin-dependent kinase 4 (Homo sapiens) (P11802 whole entry): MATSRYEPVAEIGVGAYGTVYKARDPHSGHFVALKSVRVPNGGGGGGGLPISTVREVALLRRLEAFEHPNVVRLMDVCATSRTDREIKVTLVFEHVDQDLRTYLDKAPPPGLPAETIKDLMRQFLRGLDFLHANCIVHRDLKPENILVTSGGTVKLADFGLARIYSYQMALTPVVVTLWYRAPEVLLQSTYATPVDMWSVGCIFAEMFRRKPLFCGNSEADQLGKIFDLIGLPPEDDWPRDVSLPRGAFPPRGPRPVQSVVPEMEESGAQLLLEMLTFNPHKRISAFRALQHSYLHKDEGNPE
Sequence of Tyrosine-protein kinase Blk (Homo sapiens) (P51451 2-505 limits assumed): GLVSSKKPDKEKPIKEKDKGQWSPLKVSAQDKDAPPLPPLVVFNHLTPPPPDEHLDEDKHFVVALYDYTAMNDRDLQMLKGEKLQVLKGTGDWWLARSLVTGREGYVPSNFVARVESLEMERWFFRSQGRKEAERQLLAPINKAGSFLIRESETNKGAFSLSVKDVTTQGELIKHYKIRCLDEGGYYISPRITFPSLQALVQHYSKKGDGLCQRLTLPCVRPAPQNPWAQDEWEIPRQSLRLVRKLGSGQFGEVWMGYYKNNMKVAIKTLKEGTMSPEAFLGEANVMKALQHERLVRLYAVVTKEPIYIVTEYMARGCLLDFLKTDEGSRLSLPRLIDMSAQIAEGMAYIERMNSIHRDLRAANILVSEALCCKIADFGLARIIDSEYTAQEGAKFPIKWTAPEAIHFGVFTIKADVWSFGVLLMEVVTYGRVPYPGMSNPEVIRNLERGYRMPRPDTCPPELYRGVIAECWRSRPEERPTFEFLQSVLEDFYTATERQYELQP

Structure (SMILES)	residual activity [1]	residual activity [2]	residual activity [3]	residual activity [4]	residual activity [5]	residual activity [6]	residual activity [7]	residual activity [8]	residual activity [9]	residual activity [10]	residual activity [11]	residual activity [12]	residual activity [13]
CN(C)C(=O)Cn1cc(-c2nc(C3(c4ccc(-c5cnc(N)nc5)cc4)CC3)no2)cn1 [BI 0153]	100%	100%	86%	83%	100%	99%	100%	100%	89%	100%	100%	81%	100%
CN(C)C(=O)Cn1cc(-c2nc([C@@](C)(c3ccc(-c4cnc(N)nc4)cc3)C3CC3)no2)cn1 [BI 665915]	88%	94%	100%	98%	93%	100%	0%	100%	62%	100%	90%	81%	89%
